Assay results reported in patent publication US12473295B2, “Substituted straight chain spiro derivatives” (Janssen Pharmaceutica NV, priority 2019, dated 2025).
Where a name gives a salt, the structure may show the parent alone.

How the values were obtained:
OCI-AML3 cells = assay: Proliferation assay (spheroid growth, 8 days), OCI-AML3; type: cell-based, human; details: Homo sapiens, OCI-AML-3, […], OCI-AML3, 8 days
Summary of the method: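 Cells were seeded at 200 (MOLM14, OCI-AML3) or 300 (KO-52) per well in ultra-low attachment round-bottom plates with compounds at several concentrations, 0.3% DMSO, and grown 8 days at 37° C. Spheroid confluence was imaged on day 8; IC50 came from a variable-slope fit normalized to DMSO and high-dose reference compound.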

KO-52 cells = assay: Proliferation assay (spheroid growth, 8 days), KO-52 control cell line; type: cell-based, human; details: Homo sapiens, […], read-out: spheroid assay_OneTime KO-52 IC50
Experimental: The anti-proliferative effect of menin/MLL protein/protein interaction inhibitor test compounds was assessed in human leukemia cell lines. The cell line MOLM14 harbors a MLL translocation and expresses the MLL fusion protein MLL-AF9, respectively, as well as the wildtype protein from the second allele. OCI-AML3 cells that carry the NPM1c gene mutation were also tested. […] KO-52 was used as a control cell line containing two MLL (KMT2A) wildtype alleles in order to exclude compounds that display general cytotoxic effects.
KO-52 and OCI-AML3 cell lines were propagated in alpha-MEM (Sigma Aldrich) supplemented with 20% heat-inactivated fetal bovine serum (HyClone), 2 mM L-glutamine (Sigma Aldrich) and 50 μg/ml gentamycin (Gibco).
In order to assess the anti-proliferative effects, 200 MOLM14 cells, 200 OCI-AML3 cells or 300 KO-52 cells were seeded in 200 μl media per well in […] round bottom, ultra-low attachment plates (Costar, catalogue number 7007). Cell seeding numbers were chosen based on growth curves to ensure linear growth throughout the experiment. Test compounds were added at different concentrations and the DMSO content was normalized to 0.3%. Cells were incubated for 8 days at 37° C. and 5% CO2. Spheroid like growth was measured in real-time by live-cell imaging (IncuCyteZOOM, Essenbio, 4× objective) acquiring images at day 8. Confluence (%) as a measure of spheroid size was determined using an integrated analysis tool.
In order to determine the effect of the test compounds over time, the confluence in each well as a measure of spheroid size, was calculated. Confluence of the highest dose of a reference compound was used as baseline for the LC (Low control) and the confluence of DMSO treated cells was used as 0% cytotoxicity (High Control, HC).
GraphPad Prism(version 7.00) was used to calculate the IC50. Dose-response equation was used for the plot of % Effect vs Log 10 compound concentration with a variable slope and fixing the maximum to 100% and the minimum to 0%.

MOLM14 cells = assay: Proliferation assay (spheroid growth, 8 days), MOLM14; type: cell-based, human; details: Homo sapiens, MOLM-14, […], MOLM14, 8 days; read-out: spheroid assay_OneTime MOLM14 IC50;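 further: spheroid size read as confluence by live-cell imaging, compounds added at a range of concentrations with 0.3% DMSO, DMSO-treated wells = 0%, highest reference dose = low control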
MEIS1 mRNA = MEIS1 mRNA expression assay (Quantigene Singleplex) in MOLM14 cells; type: cell-based, human; details: Homo sapiens, MOLM-14, 48 h, 48 hours incubation;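 further: MEIS1 transcript levels read by probe hybridization and normalized to RPL28 mRNA, with IC50 fitted to fold changes across a rising compound concentration series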
[1] = biological target: menin/MLL (terbium chelate-labeled menin, FITC-MBM1 peptide) (Homo sapiens (Human), UniProt O00255); assay: Menin/MLL homogenous time-resolved fluorescence (HTRF) assay; type: binding; details: HTRF-30 min incubation IC50, 30 min incubation;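 further: IC50 from percent inhibition of HTRF signal, normalized between wells without competitor and wells with a saturating competitor that displaces FITC-MBM1 from His-tagged menin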
Chain of menin/MLL (terbium chelate-labeled menin, FITC-MBM1 peptide) (O00255 other isoform, or with tags, fused parts or gaps): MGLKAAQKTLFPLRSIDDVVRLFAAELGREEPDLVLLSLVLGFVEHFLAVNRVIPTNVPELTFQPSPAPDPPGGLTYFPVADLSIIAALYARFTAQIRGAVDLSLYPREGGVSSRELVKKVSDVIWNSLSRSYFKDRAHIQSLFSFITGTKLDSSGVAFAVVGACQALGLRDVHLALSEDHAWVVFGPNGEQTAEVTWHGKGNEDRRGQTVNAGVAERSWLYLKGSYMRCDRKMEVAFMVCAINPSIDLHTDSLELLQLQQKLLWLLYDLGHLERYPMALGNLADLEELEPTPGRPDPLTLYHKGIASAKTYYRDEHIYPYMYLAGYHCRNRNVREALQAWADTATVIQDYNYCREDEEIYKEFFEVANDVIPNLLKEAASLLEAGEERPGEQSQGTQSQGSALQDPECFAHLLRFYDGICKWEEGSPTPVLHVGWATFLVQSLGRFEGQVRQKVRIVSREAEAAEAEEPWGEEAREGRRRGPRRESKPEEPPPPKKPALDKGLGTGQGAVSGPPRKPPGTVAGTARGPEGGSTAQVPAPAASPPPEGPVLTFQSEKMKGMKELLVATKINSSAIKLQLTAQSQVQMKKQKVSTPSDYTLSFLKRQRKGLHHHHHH

| SMILES | IC50 (OCI-AML3 cells) | IC50 (MOLM14 cells) | IC50 (MEIS1 mRNA) | IC50 [1] | IC50 (KO-52 cells) |
| --- | --- | --- | --- | --- | --- |
| CC(C)[C@@H](CCCN(C)CCC(=O)N(C)C)N1CC2(CCN(c3ncnnc3Oc3ccc(F)cc3C(=O)N(C(C)C)C(C)C)C2)C1 (single isomer, unassigned) [Compound 145, (*R)-2-((5-(2-(6-((3-(dimethylamino)-3-oxopropyl)(methyl)amino)-2-methylhexan-3-yl)-2,6-diazaspiro[3.4]octan-6-yl)-1,2,4-triazin-6-yl)oxy)-5-fluoro-N,N-diisopropylbenzamide fumarate] | 110 nM | 14 nM | 21 nM | 0.07 nM | > 15000 nM |
| CCN(C(=O)c1cc(F)ccc1Oc1nncnc1N1CCC2(C1)CN([C@H](CCCN(C)[C@H](C)CC(=O)N(C)C)C(C)C)C2)C(C)C (single isomer, unassigned) [Compound 184, 2-((5-(2-((R)-6-(((*R)-4-(dimethylamino)-4-oxobutan-2-yl)(methyl)amino)-2-methylhexan-3-yl)-2,6-diazaspiro[3.4]octan-6-yl)-1,2,4-triazin-6-yl)oxy)-N-ethyl-5-fluoro-N-isopropylbenzamide fumarate] | 190 nM | 230 nM | 110 nM | ~0.36 nM | 3000 nM |
| CCN(C(=O)c1cc(F)ccc1Oc1nncnc1N1CCC2(C1)CN([C@H](CCCN(C)[C@@H](C)CC(=O)N(C)C)C(C)C)C2)C(C)C (single isomer, unassigned) [Compound 185, 2-((5-(2-((R)-6-(((*S)-4-(dimethylamino)-4-oxobutan-2-yl)(methyl)amino)-2-methylhexan-3-yl)-2,6-diazaspiro[3.4]octan-6-yl)-1,2,4-triazin-6-yl)oxy)-N-ethyl-5-fluoro-N-isopropylbenzamide fumarate] | 61 nM | 79 nM | 44 nM | 0.2 nM | 1700 nM |
| CC(C)[C@@H](CCCN(C)[C@H](C)CC(N)=O)N1CC2(CCN(c3ncnnc3Oc3ccc(F)cc3C(=O)N(C(C)C)C(C)C)C2)C1 (single isomer, unassigned) [Compound 199, 2-((5-(2-((*R)-6-(((R)-4-amino-4-oxobutan-2-yl)(methyl)amino)-2-methylhexan-3-yl)-2,6-diazaspiro[3.4]octan-6-yl)-1,2,4-triazin-6-yl)oxy)-5-fluoro-N,N-diisopropylbenzamide fumarate] | 1910 nM | 460 nM | ~260 nM | 0.13 nM | > 15000 nM |
| CC(C)[C@@H](CCCN(C)[C@@H](C)CC(N)=O)N1CC2(CCN(c3ncnnc3Oc3ccc(F)cc3C(=O)N(C(C)C)C(C)C)C2)C1 (single isomer, unassigned) [Compound 201, 2-((5-(2-((*R)-6-(((S)-4-amino-4-oxobutan-2-yl)(methyl)amino)-2-methylhexan-3-yl)-2,6-diazaspiro[3.4]octan-6-yl)-1,2,4-triazin-6-yl)oxy)-5-fluoro-N,N-diisopropylbenzamide fumarate] | 65 nM | 40 nM | 52 nM | 0.13 nM | > 15000 nM |
| CC(C)[C@@H](CCCN(C)C[C@@H](C)C(N)=O)N1CC2(CCN(c3ncnnc3Oc3ccc(F)cc3C(=O)N(C(C)C)C(C)C)C2)C1 (single isomer, unassigned) [Compound 203, 2-((5-(2-((*R)-6-(((S)-3-amino-2-methyl-3-oxopropyl)(methyl)amino)-2-methylhexan-3-yl)-2,6-diazaspiro[3.4]octan-6-yl)-1,2,4-triazin-6-yl)oxy)-5-fluoro-N,N-diisopropylbenzamide fumarate] | 75 nM | 38 nM | 42 nM | 0.3 nM | > 15000 nM |
| CC(C)[C@@H](CCCN(C)C[C@H](C)C(N)=O)N1CC2(CCN(c3ncnnc3Oc3ccc(F)cc3C(=O)N(C(C)C)C(C)C)C2)C1 (single isomer, unassigned) [Compound 205, 2-((5-(2-((*R)-6-(((S)-3-amino-2-methyl-3-oxopropyl)(methyl)amino)-2-methylhexan-3-yl)-2,6-diazaspiro[3.4]octan-6-yl)-1,2,4-triazin-6-yl)oxy)-5-fluoro-N,N-diisopropylbenzamide fumarate] | 43 nM | 29 nM | 35 nM | 0.21 nM | > 15000 nM |

More lines, main results first:

| IC50 (OCI-AML3 cells) | IC50 (MOLM14 cells) | IC50 (MEIS1 mRNA) | IC50 [1] | SMILES | IC50 (KO-52 cells) |
| --- | --- | --- | --- | --- | --- |
| 1990 nM | 630 nM | ~680 nM | 1.64 nM | CCCN(C)CCC[C@@H](C(C)C)N1CC2(CCN(c3ncnnc3Oc3ccc(F)cc3C(=O)N(CC)C(C)C)C2)C1 (single isomer, unassigned) [Compound 128, (*S)—N-ethyl-5-fluoro-N-isopropyl-2-((5-(2-(2-methyl-6-(methyl(propyl)amino)hexan-3-yl)-2,6-diazaspiro[3.4]octan-6-yl)-1,2,4-triazin-6-yl)oxy)benzamide fumarate] | 11400 nM |
| 3500 nM | > 940 nM | > 1000 nM | 2.13 nM | CCN(C)CCC[C@@H](C(C)C)N1CC2(CCN(c3ncnnc3Oc3ccc(F)cc3C(=O)N(CC)C(C)C)C2)C1 (single isomer, unassigned) [Compound 133, (*S)—N-ethyl-2-((5-(2-(6-(ethyl(methyl)amino)-2-methylhexan-3-yl)-2,6-diazaspiro[3.4]octan-6-yl)-1,2,4-triazin-6-yl)oxy)-5-fluoro-N-isopropylbenzamide fumarate] | > 15000 nM |
| 120 nM | 38 nM | 17 nM | 0.13 nM | CCN(C(=O)c1cc(F)ccc1Oc1nncnc1N1CCC2(C1)CN([C@H](CCCN(C)C[C@H](COC)OC)C(C)C)C2)C(C)C (single isomer, unassigned) [Compound 176, 2-((5-(2-((R)-6-(((*R)-2,3-dimethoxypropyl)(methyl)amino)-2-methylhexan-3-yl)-2,6-diazaspiro[3.4]octan-6-yl)-1,2,4-triazin-6-yl)oxy)-N-ethyl-5-fluoro-N-isopropylbenzamide fumarate] | > 15000 nM |
| 64 nM | 24 nM | 7.3 nM | 0.062 nM | CCN(C(=O)c1cc(F)ccc1Oc1nncnc1N1CCC2(C1)CN([C@H](CCCN(C)C[C@@H](COC)OC)C(C)C)C2)C(C)C (single isomer, unassigned) [Compound 177, 2-((5-(2-((R)-6-(((*S)-2,3-dimethoxypropyl)(methyl)amino)-2-methylhexan-3-yl-2,6-diazaspiro[3.4]octan-6-yl)-1,2,4-triazin-6-yl)oxy)-N-ethyl-5-fluoro-N-isopropylbenzamide fumarate] | > 15000 nM |
| 340 nM | 55 nM | 34 nM | 0.43 nM | CCN(C(=O)c1cc(F)ccc1Oc1nncnc1N1CCC2(C1)CN([C@H](CCCN(C)C[C@@H](C)C(=O)N(C)C)C(C)C)C2)C(C)C (single isomer, unassigned) [Compound 188] | > 15000 nM |
| 190 nM | 30 nM | 19 nM | 0.22 nM | CCN(C(=O)c1cc(F)ccc1Oc1nncnc1N1CCC2(C1)CN([C@H](CCCN(C)C[C@H](C)C(=O)N(C)C)C(C)C)C2)C(C)C (single isomer, unassigned) [Compound 189, 2-((5-(2-((R)-6-(((*S)-3-(dimethylamino)-2-methyl-3-oxopropyl)(methyl)amino)-2-methylhexan-3-yl)-2,6-diazaspiro[3.4]octan-6-yl)-1,2,4-triazin-6-yl)oxy)-N-ethyl-5-fluoro-N-isopropylbenzamide fumarate] | > 15000 nM |
| 240 nM | 270 nM | 130 nM | 0.27 nM | CCN(C(=O)c1cc(F)ccc1Oc1nncnc1N1CCC2(C1)CN([C@H](CCCCN)C(C)C)C2)C(C)C (single isomer, unassigned) [Compound 209, (*R)-2-((5-(2-(7-amino-2-methylheptan-3-yl)-2,6-diazaspiro[3.4]octan-6-yl)-1,2,4-triazin-6-yl)oxy)-N-ethyl-5-fluoro-N-isopropylbenzamide formate] | > 15000 nM |
